Our source for the IC50 values is patent US9464064B2, “HCV helicase inhibitors and methods of use thereof” (University of Kansas, priority 2011, dated 2016).

Assay [1] deals with T1, NS3h_2a (Hepatitis C virus genotype 2a, UniProt Q99IB8).
T1 construct: truncated C-terminally His-tagged NS3 proteins lacking the N-terminal protease, called NS3h; His-tag (C); made in house
In words: RNA helicase assay (three-stranded RNA substrate). The assay is classed as biochemical, hepatitis C virus genotype 2a(JFH1). How it is done: To act as antivirals in cells, it is also important for an HCV helicase inhibitor to inhibit the activity of the NS3h on RNA. […] As with protein specificity, no differences were uncovered regarding substrate specificity for any of the compounds tested. In other words, none of the compounds preferred to act either on DNA or RNA substrates.

Assay [2] deals with T2, scNS4A-NS3p (UniProt P26663).
T2 construct: fused on or other part: NS4A cofactor peptide, from the same polyprotein, fused to the NS3 protease fragment
In words: NS3 protease assay (ENZOLYTE 520), protease fragment. Format: biochemical, hepatitis C virus genotype 1b. The following applies: read-out: Protease ScNS4a-NS3p IC50 (μM) ± SD; one set of assays. How it is done: (§1) All oligonucleotides were purchased from Integrated DNA Technologies (IDT, Coralville, Iowa). Primuline derivatives were synthesized and purified as described herein. Three different NS3 proteins were used in this study. Two were truncated C-terminally His-tagged NS3 proteins lacking the N-terminal protease, called NS3h, the third was a full-length NS3 with the portion of NS4A needed for protease activation fused to its N-terminus, called scNS4A-NS3 (Howe, et al. (1999) Protein Sci. 8:1332-41), and the fourth was a 23 kDa scNS4A-NS3 protease fragment lacking the helicase domains, called scNS4A-NS3p (Protein One, Rockville, Md.). NS3h was expressed from two different HCV strains. NS3h_1b(con1) was from the con1 strain of genotype 1b (GENBANK accession AB114136), and NS3h_2a(JFH1) was from the JFH1 strain of HCV genotype 2a (GENBANK accession AJ238799). […] His-tagged recombinant NS3h_1b(con1), NS3h_2a(JFH1), and scNS4A-NS3 (also from genotype 1b(con1)) were expressed, and purified as previously described (Frick, et al. (2010) supra; Lam, et al. (2003) J. Virol. 77:3950-3961). The scNS4A-NS3p (genotype 1b) was from Protein One. A plasmid expressing NS3h from dengue virus strain 2 (NS3h_DV2)(GENBANK accession 2BMF) is known in the art (Xu, et al. (2005) J. Virol. 79:10278-10288), and used to express and purify NS3h_DV2 (Belon, et al. (2010) supra)
(§2) All NS3 protease assays were carried out using the 5-Carboxyfluorescein-labeled substrate from the AnaSpec. ENZOLYTE 520 Protease Assay Kit (AnaSpec, San Jose, Calif.). Each assay contained 5 nM scNS4A-NS3 or 50 nM scNS4A-NS3p, […], 5% DMSO and 1× Anaspec HCV protease assay buffer. Assays were carried out in a total volume of 20 μl in black 384-well plates with fluorescence at 520 nm measured using a BMG FLUOstar Omega fluorescence spectrophotometer. Reactions were performed with eight concentrations of a two-fold dilution series of each compound (in duplicate) starting at 100 μM.

Assay [3] addresses T3, NS3h_1b (Hepatitis C virus genotype 1b, UniProt Q9WMX2).
T3 construct: truncated C-terminally His-tagged NS3 proteins lacking the N-terminal protease, called NS3h; His-tag (C); made in house
In words: ATPase assay without RNA. The assay is classed as biochemical, hepatitis C virus genotype 1b(con1). Here is the method: A modified “malachite green” assay (Lanzetta, et al. (1979) Anal. Biochem. 100:95-97) was used to measure ATP hydrolysis. Fifty μL reactions contained 25 mM MOPS pH 6.5, 5 mM MgCl2, 2 mM ATP, 5 μg/mL BSA, 0.01% (v/v) TWEEN 20, 0.05 mM DTT, and poly(U) RNA (Saint Louis, Mo.) as indicated. Reactions were initiated by adding NS3h_1b(con1). Reactions were incubated for 15 minutes at 37° C. then stopped by mixing 40 μL of the reaction into 200 μL of the malachite green reagent (3 volumes 0.045% (w/v) malachite green, 1 volume 4.2% ammonium molybdate in 4N HCl, 0.05 volume of 20% TWEEN 20). […] Absorbance at 630 nm was proportional to the concentration of phosphate produced; free phosphate produced was measured against a standard curve.
A simple explanation for the ability of some of the primuline derivatives to inhibit helicase and protease with similar potency would be that the compounds acted by simply aggregating or denaturing the enzyme. To test for irreversible inhibition, NS3h was incubated with 100 μM of each compound, diluted and then assayed for its ability to unwind DNA under standard conditions. […] In a second test for a simple aggregation mechanism, each compound was tested for its ability to inhibit NS3-catalyzed ATP hydrolysis. ATP hydrolysis fuels the unwinding reaction and NS3 hydrolyzes ATP both in the presence and absence of DNA or RNA; nucleic acid stimulates NS3 catalyzed ATP hydrolysis about 50-fold. […] To test this hypothesis, ATPase assays were performed in the presence of various concentrations of each primuline derivative, under conditions similar to those used to monitor effects on DNA and RNA unwinding. Far more of each compound was needed to inhibit NS3-catalyzed ATP hydrolysis than was needed to inhibit the helicase activity, or, in some cases, NS3 protease activity (Table 11).

For assay [4], the target named is T4, NS3h_1b(con1) (Hepatitis C virus genotype 1b, UniProt Q9WMX2).
T4 construct: truncated C-terminally His-tagged NS3 proteins lacking the N-terminal protease, called NS3h; His-tag (C); made in house
In words: RNA-stimulated ATP hydrolysis, pH 7.5, HCV. The assay is classed as biochemical, hepatitis C virus genotype 1b(con1). How it is done:
(§3) To compare the effect of compounds on HCV NS3h_1b (con1) to NS3h_DV2, reactions were performed with 2 nM of either enzyme in 25 mM Tris pH 7.5, 1.25 mM MgCl2, 1.0 mM ATP, 10% DMSO, 5 μg/ml BSA, 0.01% (v/v) TWEEN 20, 0.05 mM DTT, and 10 μM poly(U) RNA at 37° C.
To further profile compound specificity, it was determined whether the compounds would inhibit homologous NS3h expressed by the Dengue virus (NS3h_DV2). […] The same assays were also repeated with HCV NS3h_1b(con1) for comparison. […] However, most of the primuline derivatives were relatively potent inhibitors of RNA-stimulated ATP hydrolysis catalyzed by the Dengue enzyme under the same conditions.

Assay [5] concerns the target T5, NS3h_DV2 (Dengue virus type 2, UniProt P29990).
T5 construct: made in house
In words: RNA-stimulated ATP hydrolysis, pH 7.5, Dengue. Format: biochemical. The following applies: 10 μM poly(U) RNA, read-out: ATPase w/RNA NS3h_DV2 IC50 (μM) ± SD. Here is the method: as §3
To further profile compound specificity, it was determined whether the compounds would inhibit homologous NS3h expressed by the Dengue virus (NS3h_DV2). […] The same assays were also repeated with HCV NS3h_1b(con1) for comparison.

Assay [6] deals with scNS4A-NS3 (Hepatitis C virus genotype 1b, UniProt Q9WMX2). In words: NS3 protease assay (ENZOLYTE 520), full-length. Format: biochemical, hepatitis C virus genotype 1b(con1). More on the design: other: average of two sets; There is also a His tag. Here is the method: as §1, §2
Chain of scNS4A-NS3 (Q9WMX2 1027-1657): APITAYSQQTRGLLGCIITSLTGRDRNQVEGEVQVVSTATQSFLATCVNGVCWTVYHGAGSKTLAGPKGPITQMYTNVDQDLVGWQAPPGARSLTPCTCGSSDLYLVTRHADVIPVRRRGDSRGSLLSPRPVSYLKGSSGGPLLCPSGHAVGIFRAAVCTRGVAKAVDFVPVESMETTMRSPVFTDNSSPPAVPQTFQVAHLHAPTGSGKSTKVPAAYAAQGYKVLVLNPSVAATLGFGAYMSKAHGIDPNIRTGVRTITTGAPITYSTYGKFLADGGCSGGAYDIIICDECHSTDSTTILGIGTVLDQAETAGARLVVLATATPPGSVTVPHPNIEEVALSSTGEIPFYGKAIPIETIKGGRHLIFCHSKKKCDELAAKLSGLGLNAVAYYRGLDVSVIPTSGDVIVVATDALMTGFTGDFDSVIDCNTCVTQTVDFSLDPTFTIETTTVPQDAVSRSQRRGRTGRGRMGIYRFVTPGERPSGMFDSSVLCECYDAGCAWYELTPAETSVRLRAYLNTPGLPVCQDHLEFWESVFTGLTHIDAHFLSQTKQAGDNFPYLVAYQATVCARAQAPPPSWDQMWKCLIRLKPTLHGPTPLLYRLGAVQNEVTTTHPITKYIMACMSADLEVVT

T1 sequence (Q99IB8 1196-1661): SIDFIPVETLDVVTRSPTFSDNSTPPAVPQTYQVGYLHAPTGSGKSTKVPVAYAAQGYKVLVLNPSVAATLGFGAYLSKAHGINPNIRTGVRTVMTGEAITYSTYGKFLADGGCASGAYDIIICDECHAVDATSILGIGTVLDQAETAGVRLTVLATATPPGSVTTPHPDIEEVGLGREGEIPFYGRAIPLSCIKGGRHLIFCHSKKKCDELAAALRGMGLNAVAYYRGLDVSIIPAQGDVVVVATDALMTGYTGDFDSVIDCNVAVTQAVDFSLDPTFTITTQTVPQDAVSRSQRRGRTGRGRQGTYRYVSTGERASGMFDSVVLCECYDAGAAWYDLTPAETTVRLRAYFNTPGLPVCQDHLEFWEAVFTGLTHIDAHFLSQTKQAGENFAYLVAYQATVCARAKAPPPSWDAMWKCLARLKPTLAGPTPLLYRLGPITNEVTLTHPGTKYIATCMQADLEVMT
T2 sequence (P26663 1027-1657): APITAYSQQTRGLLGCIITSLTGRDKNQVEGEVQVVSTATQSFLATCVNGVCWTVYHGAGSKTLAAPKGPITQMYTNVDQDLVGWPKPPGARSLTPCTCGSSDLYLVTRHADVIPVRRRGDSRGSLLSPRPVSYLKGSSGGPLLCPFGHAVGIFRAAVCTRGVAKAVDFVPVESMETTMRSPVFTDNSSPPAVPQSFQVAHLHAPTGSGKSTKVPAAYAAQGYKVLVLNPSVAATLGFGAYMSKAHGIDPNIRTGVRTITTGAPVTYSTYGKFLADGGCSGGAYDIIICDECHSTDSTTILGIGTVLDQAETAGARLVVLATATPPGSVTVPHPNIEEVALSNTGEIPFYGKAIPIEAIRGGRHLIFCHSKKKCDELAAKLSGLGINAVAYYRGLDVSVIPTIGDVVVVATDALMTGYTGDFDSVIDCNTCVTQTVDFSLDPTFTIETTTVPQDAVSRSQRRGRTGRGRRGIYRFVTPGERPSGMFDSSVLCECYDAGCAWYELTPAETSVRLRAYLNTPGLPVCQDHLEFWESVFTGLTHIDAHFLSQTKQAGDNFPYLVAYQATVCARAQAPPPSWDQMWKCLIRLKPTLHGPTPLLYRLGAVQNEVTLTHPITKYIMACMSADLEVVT
T3 sequence (Q9WMX2 1192-1657): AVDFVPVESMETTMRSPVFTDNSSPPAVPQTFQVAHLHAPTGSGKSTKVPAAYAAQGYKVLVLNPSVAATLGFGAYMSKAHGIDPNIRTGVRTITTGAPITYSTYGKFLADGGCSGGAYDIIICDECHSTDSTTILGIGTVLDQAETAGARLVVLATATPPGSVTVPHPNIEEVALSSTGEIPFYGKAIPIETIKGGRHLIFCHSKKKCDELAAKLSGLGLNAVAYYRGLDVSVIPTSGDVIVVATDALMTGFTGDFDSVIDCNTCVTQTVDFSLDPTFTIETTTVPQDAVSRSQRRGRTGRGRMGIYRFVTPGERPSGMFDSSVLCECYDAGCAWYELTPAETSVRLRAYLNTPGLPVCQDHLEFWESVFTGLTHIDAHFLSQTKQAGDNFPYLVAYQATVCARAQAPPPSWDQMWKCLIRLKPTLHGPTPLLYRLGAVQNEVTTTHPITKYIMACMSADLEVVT
T4 sequence (Q9WMX2 1192-1657): as above
T5 sequence (P29990 1646-2093): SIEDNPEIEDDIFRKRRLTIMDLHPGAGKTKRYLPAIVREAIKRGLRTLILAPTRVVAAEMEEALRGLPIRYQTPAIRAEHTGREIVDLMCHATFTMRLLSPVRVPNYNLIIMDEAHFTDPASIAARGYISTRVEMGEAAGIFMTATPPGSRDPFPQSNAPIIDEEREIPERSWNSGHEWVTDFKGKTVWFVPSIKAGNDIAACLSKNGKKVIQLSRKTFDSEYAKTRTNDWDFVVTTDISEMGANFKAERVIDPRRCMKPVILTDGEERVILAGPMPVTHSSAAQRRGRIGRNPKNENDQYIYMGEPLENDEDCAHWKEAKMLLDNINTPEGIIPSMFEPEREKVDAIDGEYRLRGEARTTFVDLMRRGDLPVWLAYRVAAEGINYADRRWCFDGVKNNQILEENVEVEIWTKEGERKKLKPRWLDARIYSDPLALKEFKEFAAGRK

Take `Cc1ccc2nc(-c3ccc4nc(-c5ccc(NC(=O)c6ccc7ccccc7c6)cc5)sc4c3)sc2c1S(=O)(=O)O` [Compound 33, 2′-(4-(2-naphthamido)phenyl)-6-methyl-[2,6′-bibenzo[d]thiazole]-7-sulfonic acid]: the IC50 in assay [1] is 3 ± 2 µM; in assay [2] it was over 100 µM; in assay [3] it was 30 ± 6 µM; in assay [4], 52 ± 6 µM; in assay [5], 3 ± 1 µM; in assay [6] it was over 100 µM.

Take `Cc1ccc2nc(-c3ccc4nc(-c5ccc(N)cc5)sc4c3)sc2c1S(=O)(=O)O` [Compound P2a, 2′-(4-aminophenyl)-6-methyl-[2,6′-bibenzo[d]thiazole]-7-sulfonic acid]: the IC50 was 32 ± 14 µM in assay [1]; over 100 µM in assay [2]; over 200 µM in assay [3]; over 200 µM in assay [4]; 32 ± 17 µM in assay [5]; over 100 µM in assay [6].
